Reference: patent EP0005219A1, “Arylimidazoles, their synthesis and pharmaceutical or veterinary preparations containing them” (A/S Dumex (Dumex Ltd.), priority 1978, dated 1979)
Read-outs that look alike come from different tables or passages of the source.

Legend:
in vivo = format: in vivo; conditions: mouse, in vivo, po, read-out: Acute toxicity LD50
mice [1] = assay: Writhing test in mice (acetic acid induced writhing), analgesic activity; format: in vivo; conditions: for ED50: Mus musculus, po, 20 min, read-out: Analgesic ED50 Writhing test; for analgesic activity compared with the compounds of the present invention: statement in words, refers to the pharmacological tests of Table 1
Protocol: Writhing test in mice. (SPF females of the strain NMRI/BOM, weighing 20-25 g). The test substance was administered by gavage ½ hour prior to an intraperitoneal injection of acetic acid. The number of writhing movements in 20 minutes was counted.

rats [2] = assay: Randall-Selitto test in rats (analgesia-meter, brewer's yeast paw), analgesic activity; format: in vivo; conditions: Rattus norvegicus, po, read-out: Analgesic ED50 Analgesia-meter
Protocol: 2. Randall-Selitto test in rats. (SPF males of the strain Sprague-Dawley, weighing 90-100 g). The test was performed on the whole as described by Randall and Selitto: Arch. Int. Pharmacodyn. […] An analgesia-meter of the make Ugo Basile was used and the test substance was administered by gavage 2 hours after injection of a suspension of brewer's yeast into the rat paw.

rats [3] = assay: Test for antiinflammatory activity in rats (carrageenin paw); format: in vivo; conditions: Rattus norvegicus, po, read-out: Antiinflam-matory test ED50
Protocol: SPF males of the strain Sprague-Dawley, weighing ~ 150 g were used. The test was performed according to Winter et al.: Proc. Soc. […] The test substance was given by gavage 1 hour prior to injection of a carrageenin-suspension into the rat paw.

[4] = Ulcerogenic activity in rats; conditions: rat, in vivo, po
Protocol: SPF males of the strain Sprague-Dawley weighing 180-250 g were used. 5 hours after administration by gavage of the test substance the rats were killed by an overdose of ether. The stomachs were removed and opened along the greater curvature. The number of ulcers was assessed and compared to control rats.

PG-synthetase = assay: Prostaglandin-synthetase inhibition test; format: biochemical; conditions: AA = Arachidonic acid
mice [5] = assay: in vivo; format: in vivo; conditions: statement in words, refers to the pharmacological data of Table 1
[6] = mice, by gavage, observation period 168 hours
[7] = mice, by gavage ½ hour prior to intraperitoneal acetic acid, writhing movements in 20 minutes
[8] = rats, by gavage 2 hours after brewer's yeast injection into the paw
[9] = rats, by gavage 1 hour prior to carrageenin injection into the paw
[10] = rats, by gavage, stomachs examined 5 hours after administration, read-out: Ulcerogenic activity ED50

SMILES | LD50 at 168 h (in vivo; [6]) | ED50 (mice [1]; [7]) | ED50 (rats [2]; [8]) | ED50 (rats [3]; [9]) | LD50 at 168 h (in vivo) | TD50 at 5 h [4] | Inhibition of PG-synthetase IC50 (PG-synthetase) | toxicity compared with the compounds of the present invention (mice [5]) | analgesic activity compared with the compounds of the present invention (mice [1]) | ED50 (rats [2]; 2 h) | ED50 (rats [3]) | ED50 (mice [1]) | TD50 at 5 h [4, 10]
COc1ccc(-c2nc(-c3ccc(F)cc3)n(CCC(=O)O)c2-c2ccc(OC)cc2)cc1 [Compound 1, 1-(2-Carboxyethyl)-2-(p-fluorphenyl)-4,5-bis(p-methoxyphenyl)imidazole, reference compound] | > 2000 mg/kg | > 200 mg/kg |  |  |  |  |  |  |  |  |  |  | 
COc1ccc(-c2nc(-c3ccccc3F)[nH]c2-c2ccc(OC)cc2)cc1 [Compound 2, 2-(o-Fluorphenyl)-4,5-bis(p-methoxyphenyl)imidazole] |  | 15 mg/kg | 0.3 mg/kg | 130 mg/kg | > 2000 mg/kg | 590 mg/kg |  |  |  |  |  |  | 
COc1ccc(-c2nc(-c3cccc(F)c3)[nH]c2-c2ccc(OC)cc2)cc1 [Compound 3, 2-(m-Fluorphenyl)-4,5-bis(p-methoxyphenyl)imidazole] |  | 3.2 mg/kg | 0.25 mg/kg | 38 mg/kg | > 2000 mg/kg | 870 mg/kg |  |  |  |  |  |  | 
COc1ccc(-c2nc(-c3ccc(F)cc3)[nH]c2-c2ccc(OC)cc2)cc1 [Compound 4, 2-(p-Fluorphenyl)-4,5-bis(p-methoxyphenyl)imidazole] |  | 5 mg/kg | 0.3 mg/kg | 14 mg/kg | 1900 mg/kg | 360 mg/kg | 0,18 µg/10 µg AA |  |  |  |  |  | 
COc1ccc(-c2nc(-c3cccc(F)c3F)[nH]c2-c2ccc(OC)cc2)cc1 [Compound 5, 2-(2,3-Difluorphenyl)-4,5-bis(p-methoxyphenyl) imidazole] |  | 4.6 mg/kg | 0.55 mg/kg | 120 mg/kg | > 2000 mg/kg | 800 mg/kg | 0,21 µg/10 µg AA |  |  |  |  |  | 
COc1ccc(-c2nc(-c3ccc(F)cc3F)[nH]c2-c2ccc(OC)cc2)cc1 [Compound 6, 2-(2,4-Difluorphenyl)-4,5-bis(p-methoxyphenyl)imidazole] |  | 4 mg/kg | 0.8 mg/kg | 47 mg/kg | > 2000 mg/kg | > 300 mg/kg | 0,27 µg/10 µg AA |  |  |  |  |  | 
COc1ccc(-c2nc(-c3cc(F)ccc3F)[nH]c2-c2ccc(OC)cc2)cc1 [Compound 7, 2-(2,5-Difluorphenyl)-4,5-bis(p-methoxyphenyl)imidazole] |  | 16 mg/kg | 0.55 mg/kg | 110 mg/kg | > 2000 mg/kg | 1000 mg/kg | 1,71 µg/10 µg AA |  |  |  |  |  | 
COc1ccc(-c2nc(-c3c(F)cccc3F)[nH]c2-c2ccc(OC)cc2)cc1 [Compound 8, 2-(2,6-Difluorphenyl)-4,5-bis(p-methoxyphenyl)imidazole] |  | 6.8 mg/kg | 0.55 mg/kg | 300 mg/kg | > 2000 mg/kg | > 300 mg/kg | 0,13 µg/10 µg AA |  |  |  |  |  | 
COc1ccc(-c2nc(-c3ccc(F)c(F)c3)[nH]c2-c2ccc(OC)cc2)cc1 [Compound 9, 2-(3,4-Difluorphenyl)-4,5-bis(p-methoxyphenyl)imidazole] | > 2000 mg/kg | 1.9 mg/kg |  | 15 mg/kg |  |  |  |  |  |  |  |  | 
COc1ccc(-c2nc(-c3cc(F)cc(F)c3)[nH]c2-c2ccc(OC)cc2)cc1 [Compound 10, 2-(3,5-Difluorphenyl)-4,5-bis(p-methoxyphenyl)imidazole] |  | 10 mg/kg | 0.45 mg/kg | 150 mg/kg |  | 780 mg/kg |  |  |  |  |  |  | 
COc1ccc(-c2nc(C(F)(F)F)[nH]c2-c2ccc(OC)cc2)cc1 [Compound 11, 2-Trifluormethyl-4,5-bis(p-methoxyphenyl)imidazole, reference compound] |  | 75 mg/kg |  | 25 mg/kg |  | 450 mg/kg |  | higher toxicity | weaker analgesic activity |  |  |  | 
COc1ccc(-c2nc(C(C)C)[nH]c2-c2ccc(OC)cc2)cc1 [Compound 12, 2-Isopropyl-4,5-bis(p-methoxyphenyl)imidazole, reference compound] | > 2000 mg/kg | 200 mg/kg |  |  |  |  |  |  | much weaker analgesic activity |  |  |  | 
COc1ccc2c(c1)c(CC(=O)O)c(C)n2C(=O)c1ccc(Cl)cc1 [Compound 13, Indomethacin, reference compound] | 21 mg/kg |  |  |  |  |  | 0,65 µg/10 µg AA |  |  | 0.36 mg/kg | 28 mg/kg | 8 mg/kg | 9.7 mg/kg
COc1ccc2cc([C@H](C)C(=O)O)ccc2c1 [Compound 14, Naproxen, reference compound] |  |  | 1.6 mg/kg | 10 mg/kg |  |  | 0,49 µg/10 µg AA |  |  |  |  |  | 19.5 mg/kg
CC(=O)Oc1ccccc1C(=O)O [Compound 15, Acetyl salicylic acid, reference compound] | 1700 mg/kg |  |  |  |  |  | 7,61 µg/10 µg AA |  |  |  | 350 mg/kg | 100 mg/kg | 340 mg/kg
